Data reported in US20220348590A1, “CYCLOOXYGENASE-2 INHIBITORS AND USES THEREOF” (The Board Institute, Inc., priority 2019, published 2022).
Like-named read-outs stand apart in the source and are kept apart here.

Target: T1, human recombinant COX2 (hCOX2) (UniProt P35354)
T1 sequence (P35354 1-604): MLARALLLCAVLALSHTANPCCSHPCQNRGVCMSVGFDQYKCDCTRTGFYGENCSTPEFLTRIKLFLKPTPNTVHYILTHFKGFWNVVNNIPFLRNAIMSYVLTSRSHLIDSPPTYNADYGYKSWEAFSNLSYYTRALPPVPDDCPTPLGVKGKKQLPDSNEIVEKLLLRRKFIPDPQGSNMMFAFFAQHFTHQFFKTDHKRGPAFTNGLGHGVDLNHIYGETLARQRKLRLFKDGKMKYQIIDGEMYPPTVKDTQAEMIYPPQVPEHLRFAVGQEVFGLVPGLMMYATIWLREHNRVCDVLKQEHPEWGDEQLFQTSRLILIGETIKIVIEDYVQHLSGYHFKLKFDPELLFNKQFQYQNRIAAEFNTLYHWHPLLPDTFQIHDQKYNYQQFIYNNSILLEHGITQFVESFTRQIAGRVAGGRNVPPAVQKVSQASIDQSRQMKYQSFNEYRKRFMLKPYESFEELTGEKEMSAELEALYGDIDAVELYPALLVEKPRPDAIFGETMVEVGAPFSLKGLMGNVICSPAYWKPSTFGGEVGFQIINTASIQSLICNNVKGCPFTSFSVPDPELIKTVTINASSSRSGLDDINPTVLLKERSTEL
Experiment: LCMS-based COX2 enzymatic inhibition assay (PGE2 quantification)
Format: biochemical
Design: COX2 2 minutes pge2/pge2d4 area ratio Avg; other: 2 minutes; readout pge2/pge2d4 area ratio; average; COX2 2 minutes pge2/pge2d4 area ratio Avg; LLE; average LLE; COX2 2 minutes pge2 area (counts) Avg; readout pge2 area (counts); other: 2 min; "ovine COX2 (oCOX2), human recombinant COX2 (hCOX2)"
Conditions: for IC50: average
Protocol: We have adapted a previously reported cyclooxygenase enzymatic assay utilizing LCMS quantification of PGE2 as the product of COX-1 and COX2 catalyzed conversion of arachidonic acid to evaluate the binding properties of newly synthesized ligands [Cao, 2011]. These optimized and miniaturized (384-well plates) LCMS-based COX-1 and COX2 enzymatic assays enabled us to quickly evaluate newly synthesized ligands for COX2 binding affinity and selectivity vs COX-1. Using a shorter ligand-enzyme incubation time in the LCMS assay (2 minutes vs 10 minutes) also permitted us to prioritize ligands with faster binding kinetics. Considering the relatively slow on-rate kinetics of known coxibs, due to their 3-step binding mechanism [Marnett, 2009], we believe that optimizing this critical parameter will be key to the successful development of a COX2 PET tracer. Using these enzymatic assays, we have evaluated>200 newly synthesized ligands against COX2 and >20 ligands against COX-1. Another critical property necessary for a good PET radiotracer is to have low non-specific binding (NSB) to increase the free fraction and maximize the signal to noise ratio. This property can be evaluated using in-vitro protein binding assays, and we have now evaluated>50 newly synthesized ligands in mouse, rat and human plasma protein binding (PPB) assays as well as >15 ligands in a mouse brain protein binding (BPB) assay.
Ovine COX-1 (oCOX-1), ovine COX2 (oCOX2), human recombinant COX2 (hCOX2), arachidonic acid, PGE2, d4-PGD2, and […] (labeled with deuterium atoms at positions 3 and 4) were purchased from Cayman Chemicals (Ann Arbor, Mich.). The cofactors (−)epinephrine and hematin, and the COX inhibitors indomethacin, resveratrol and diclofenac were purchased from Sigma-Aldrich (St. Louis, Mo.). Celecoxib was purchased from 3B PharmaChem International (Wuhan, China). All organic solvents were HPLC grade or better and were purchased from Thermo Fisher (Hanover Park, Ill.). Formic acid was purchased from EMD Chemicals (San Diego, Calif.). Purified water was prepared by using a Millipore Milli-Q purification system (Millipore, Billerica, Mass.). All other chemicals and solvents were ACS reagent grade, unless stated otherwise.
In an Eppendorf tube, 146 μL of 100 mM Tris.HCl (pH 8.0) buffer, 2 μL of 100 μM hematin (co-factor) and 10 μL of 40 mM L-epinephrine (co-factor) were mixed at room temperature. Next, 20 μL of Tris.HCl (pH 8.0) buffer containing 0.2 μg COX2 or 0.1 μg COX-1 (approximately 1 unit of enzyme; 1 unit COX utilizes 1 nmol 02/mg/min at 37° C.) was added, and the solution was incubated at room temperature for 2 min. A 2 μL aliquot of the COX inhibitor in DMSO was added to the enzyme solution and preincubated at 37° C. for 10 min. Negative controls were identical except that 2 μL aliquots of DMSO without inhibitor were used instead.
Each COX reaction was initiated by adding 20 μL of arachidonic acid in Tris.HCl (pH 8.0) buffer to give a final concentration of 5 μM; and the reaction was terminated after 2 min by adding 20 μL of 2.0 M HCl. The surrogate standards d4-PGE2 and d4-PGD2 (10 μL aliquot of 50 ng/mL solution in methanol) were added to correct for errors or degradation during sample handling and for variation in injection volume or instrument response during LC-MS-MS. After 30 min, PGE2, PGD2 and their surrogate standards were extracted from each incubation mixture using 800 μL hexane/ethyl acetate (50:50, v/v). The organic phase was removed, evaporated to dryness, and reconstituted in 100 μL methanol/water (50:50, v/v) for analysis using LC-MS-MS.
The concentration of PGE2 in each sample was measured using LC-MS-MS, and the percent of COX inhibition by each test solution was determined by comparing the amount of PGE2 produced in the experiment with that produced in the negative control incubation. The formation of PGD2 was measured for quality control purposes, since the levels of PGD2 should be proportional to those of PGE2. […]

[1] = 2 minutes, readout pge2/pge2d4 area ratio, average LLE
[2] = 2 minutes, readout pge2/pge2d4 area ratio, read-out: COX2 2 minutes pge2/pge2d4 area ratio Avg. IC50
[3] = 2 minutes, readout pge2 area (counts), average LLE
[4] = 2 minutes, readout pge2 area (counts), read-out: COX2 2 minutes pge2 area (counts) Avg. IC50
[5] = 10 minutes, readout pge2 area (counts), average LLE
[6] = 10 minutes, readout pge2 area (counts), read-out: COX2 10 minutes pge2 area (counts) Avg. IC50
[7] = read-out: COX2 2 minutes pge2/pge2d4 area ratio Avg. IC50 (microM), 2 minutes, readout pge2/pge2d4 area ratio

Row | COX2 2 minutes pge2/pge2d4 area ratio Avg. LLE [1] | IC50 [2] | COX2 2 minutes pge2 area (counts) Avg. LLE [3] | IC50 [4] | COX2 10 minutes pge2 area (counts) Avg. LLE [5] | IC50 [6] | COX2 30 minutes pge2 area (counts) Avg. LLE (30 minutes, readout pge2 area (counts), average LLE) | IC50 (30 minutes, readout pge2 area (counts), read-out: COX2 30 minutes pge2 area (counts) Avg. IC50) | Structure (SMILES) | IC50 [7]
1 | 3.162 | 0.385 µM | 3.174 | 0.361 µM |  |  |  |  | COc1ccc(-c2ccc(S(C)(=O)=O)cc2)nc1NCc1cccs1 [Compound 160] | 
2 |  | 0.437 µM |  | 0.425 µM |  |  |  |  | CS(=O)(=O)c1ccc(-n2ccc3ccc([C@H](O)c4cccs4)nc32)cc1 (single isomer, unassigned) [Compound 168] | 
3 | 4.695 | 0.116 µM | 4.215 | 0.233 µM |  |  |  |  | Cc1ncc(OCc2cccs2)nc1-c1ccc(S(C)(=O)=O)cc1 [Compound 119] | 
4 | 4.592 | 0.425 µM | 4.629 | 0.391 µM |  |  |  |  | CS(=O)(=O)c1ccc(-c2cnc(N)c(NCc3cccs3)n2)cc1 [Compound 165] | 
5 |  | 0.442 µM |  | 0.294 µM |  | 0.0591 µM |  |  | CS(=O)(=O)c1ccc(-c2cnc(C#N)c(NCc3cccs3)n2)cc1 [Compound 169] | 
6 | 2.741 | 1.27 µM | 2.638 | 1.59 µM |  |  |  |  | CS(=O)(=O)c1ccc(-c2cccc(C(=O)Cc3cccs3)n2)cc1 [Compound 206] | 
7 |  | 0.121 µM |  | 0.124 µM |  |  |  |  | CS(=O)(=O)c1ccc(-c2ccc3c(n2)N(Cc2cccs2)CC3)cc1 [Compound 121] | 
8 | 3.569 | 0.131 µM | 3.5904 | 0.121 µM |  |  |  |  | COc1cnc(-c2ccc(S(C)(=O)=O)cc2)nc1OCc1cccs1 [Compound 123] | 
9 | 1.703 | 3.15 µM |  |  |  |  |  |  | CS(=O)(=O)c1ccc(-c2cnc3cnn(Cc4cccs4)c3c2)cc1 [Compound 244] | 

More lines, now with the values behind:

Row | Structure (SMILES) | COX2 2 minutes pge2/pge2d4 area ratio Avg. LLE [1] | IC50 [2] | COX2 2 minutes pge2 area (counts) Avg. LLE [3] | IC50 [4] | COX2 10 minutes pge2 area (counts) Avg. LLE [5] | IC50 [6] | COX2 30 minutes pge2 area (counts) Avg. LLE (30 minutes, readout pge2 area (counts), average LLE) | IC50 (30 minutes, readout pge2 area (counts), read-out: COX2 30 minutes pge2 area (counts) Avg. IC50) | IC50 [7]
10 | CC(C)CNc1cncc(-c2ccc(S(C)(=O)=O)cc2)n1 [Compound 178] | 4.69 | 0.544 µM | 4.636 | 0.608 µM | 5.429 | 0.119 µM |  |  | 
11 | Cc1ccc(COc2cncc(-c3ccc(S(C)(=O)=O)cc3)n2)cc1 [Compound 309] |  |  | 2.514 |  |  |  |  |  | 5.2 µM
12 | CO/N=C(\c1ccc2ccn(-c3ccc(S(C)(=O)=O)cc3)c2n1)c1cccs1 [Compound 191] |  | 0.735 µM |  | 0.886 µM |  |  |  |  | 
13 | CS(=O)(=O)c1ccc(-c2cncc(SCc3ncco3)n2)cc1 [Compound 217] | 3.66 | 1.54 µM | 3.522 | 2.24 µM |  |  |  |  | 
14 | COc1ncc(NCc2sccc2C)nc1-c1ccc(S(C)(=O)=O)cc1 [Compound 62] | 4.781 | 0.0345 µM | 4.654 | 0.0405 µM |  |  |  |  | 
15 | COc1ncc(NCc2ccncc2)nc1-c1ccc(S(C)(=O)=O)cc1 [Compound 182] | 5.042 | 0.559 µM | 5.147 | 0.415 µM |  |  |  |  | 
16 | CS(=O)(=O)c1ccc(-c2cc(C(F)(F)F)nc(Oc3ccc(F)cc3)n2)cc1 [Compound 130] | 2.661 | 0.153 µM | 2.626 | 0.21 µM | 4.116 | 0.00942 µM | 5.42 | 0.000242 µM | 
17 | CS(=O)(=O)c1ccc(-n2ccc3ccc(NCc4ccco4)nc32)cc1 [Compound 125] | 3.017 | 0.141 µM | 2.953 | 0.174 µM |  |  |  |  | 
18 | CS(=O)(=O)c1ccc(-c2cncc(NCc3ncco3)n2)cc1 [Compound 246] | 4.306 | 3.27 µM | 4.2875 | 3.41 µM |  |  |  |  | 
19 | Cc1cccc(COc2cncc(-c3ccc(S(C)(=O)=O)cc3)n2)c1 [Compound 285] | 2.514 |  | 2.514 |  |  |  |  |  | 5.2 µM
20 | CS(=O)(=O)c1ccc(-c2cc(S(C)(=O)=O)cc(NCc3cccs3)n2)cc1 [Compound 268] | 2.624 |  | 2.624 |  |  |  |  |  | 5.2 µM
21 | CS(=O)(=O)c1ccc(-c2cncc(OCc3ccns3)n2)cc1 [Compound 153] | 5.153 | 0.304 µM | 5.323 | 0.195 µM |  |  |  |  | 
22 | COc1cc(S(C)(=O)=O)ccc1-c1cncc(NCc2ccoc2)n1 [Compound 272] | 3.674 |  | 3.674 |  |  |  |  |  | 5.2 µM
23 | CS(=O)(=O)c1ccc(-c2cncc(NCc3ccsc3)n2)cc1 [Compound 104] | 4.901 | 0.0911 µM | 4.97 | 0.0741 µM |  |  |  |  | 
24 | CS(=O)(=O)c1ccc(-c2cc(OCc3cccs3)ccn2)cc1 [Compound 315] |  |  |  |  |  |  |  |  | 5.2 µM
25 | CS(=O)(=O)c1ccc(-c2cncc(NCc3ccc(F)nc3)n2)cc1 [Compound 208] | 4.4967 | 1.34 µM | 4.501 | 1.31 µM | 5.151 | 0.357 µM |  |  | 
26 | CS(=O)(=O)c1ccc(-c2cncc(NCc3ccns3)n2)cc1 [Compound 142] | 5.555 | 0.221 µM | 5.576 | 0.211 µM |  |  |  |  | 
